Data: PMC9598656, “In Vitro Activity of Robenidine Analogues NCL259 and NCL265 against Gram-Negative Pathogens” (Antibiotics, 2022)
Like-named read-outs stand apart in the source and are kept apart here.

How the values were obtained:
[1] = system: K. pneumoniae ATCC 33495; assay: MIC, broth micro-dilution; assay type: cell-based, Klebsiella pneumoniae; conditions: Klebsiella pneumoniae, ATCC33495, read-out: MIC, Single Drug
Description: (§1) A variety of Gram-negative reference strains (E. coli ATCC 25922, E. coli ATCC 10763, P. aeruginosa PAO1, P. aeruginosa ATCC 27853, A. baumannii ATCC 12457, A. baumannii ATCC 19606, K. pneumoniae ATCC 4352 and K. pneumoniae ATCC 33495) were used for initial screening and combination testing with PMB. The organisms were speciated using biochemical testing and MALDI-TOF mass spectrometry (Bruker, Preston, VIC, Australia). Activity testing of NCL259 and NCL265 was also carried out on 51 extraintestinal clinical E. coli isolates from companion animals, and 83 porcine and bovine enterotoxigenic E. coli (ETEC) isolates from the Australian Centre for Antimicrobial Resistance Ecology collection. E. coli wild-type (BW 25113) and its mutant BW 25113∆AcrB, in which the inner membrane component AcrB of the tripartite multidrug efflux system AcrA/AcrB/TolC has been deleted, were obtained from the bacterial collection held at Health and Biomedical Innovation, Clinical and Health Sciences, The University of South Australia. All isolates were cultured on sheep blood agar (SBA) plates at 37 °C for 18 h before being subcultured into Luria Bertaini (LB) (Oxoid, Scoresby, VIC, Australia) broth and grown to A600nm = 0.5 (equivalent to approx. 1.5 × 10^8 colony-forming units (CFU)/mL).
(§2) MICs for NCL259 and NCL265 (serial two-fold dilutions commencing at 256 µg/mL) were determined (in duplicate) in round bottom 96–well microtitre trays (Sarstedt 82.1582.001), using the broth micro-dilution method recommended by the Clinical and Laboratory Standards Institute (CLSI). We have shown previously that robenidine can chelate calcium ions from cation-adjusted Mueller-Hinton broth, which causes the loss of activity of robenidine. Therefore, LB broth was used in this study. Additionally, considering the low solubility of robenidine and its analogues in aqueous solutions, two-fold serial dilutions of stock solutions of these compounds were prepared in 100% DMSO [21]. The MIC for ampicillin against each isolate was determined for each test to serve as an internal quality control. The MICs of isolates were determined by visual reading and using an EnSpire Multimode Plate Reader 2300 at A600nm.

[2] = system: K. pneumoniae ATCC 4352; assay: MIC, broth micro-dilution; assay type: cell-based, Klebsiella pneumoniae; conditions: Klebsiella pneumoniae, ATCC4352, read-out: MIC, Single Drug
Description: as §1, §2

[3] = system: P. aeruginosa PAO1; assay: Checkerboard assay with PMB; assay type: cell-based, Pseudomonas aeruginosa; conditions: for MIC, Combination: NCL259 or NCL265 with PMB; for Combination Effect / FICI: with PMB
Description: (§3) MICs of NCL259 or NCL265 in the presence of the efflux pump inhibitor, PAβN were determined using a checkerboard assay. […] Briefly, a two-fold serial dilution of each antimicrobial solution was prepared in its appropriate solvent (e.g., DMSO for robenidine analogues and Milli-Q water for PAβN), and 1 μL of each dilution was added from wells 12 to 3 (12.8–0.25 μg/mL for robenidine analogues, and 32–2 μg/mL for PAβN). Thereafter, 89 μL of LB broth was added to each well followed by the addition of 10 μL of bacterial suspension (1–5 × 10^6 CFU/mL) to each well. In this manner, the final concentration of DMSO in each well was 1%. The plate was subsequently incubated at 37 °C for 24 h. The resazurin assay was used for assessment of drug susceptibility of NCL259 and NCL265 (Supplementary Table S1–S6). The same method was also used to test the MICs of NCL259 or NCL265 in the presence of PMB against a range of Gram-negative reference strains (E. coli ATCC 25922, E. coli ATCC 10763, P. aeruginosa PAO1, P. aeruginosa ATCC 27853, A. baumannii ATCC 12457, A. baumannii ATCC 19606, K. pneumoniae ATCC 4352 and K. pneumoniae ATCC 33495). Stock solutions were prepared prior to use (25.6–0.25 mg/mL for robenidine analogues; 12.8–0.25 mg/mL for PMB). The interaction of two antibiotics was calculated as the fractional inhibitory concentration index (FICI) using the following formula:(1) FICI=MICA in combination/MICA alone+MICB in combination/MICB alone where A is NCL259 or NCL265 and B is PAβN or PMB. According to FICI calculations, the interaction between two compounds were interpreted as follows: synergistic (FICI ≤ 0.5); additive or partially synergistic (0.5 < FICI ≤ 1); indifferent (1 < FICI ≤ 4); and antagonistic (FICI > 4), as described previously. The dose reduction index (DRI) was used to describe the difference between the effective doses of NCL259 or NCL265 in combination with PMB or PAβN in comparison to their individual doses, using the following formula:(2) DRI=MICA alone/MICA in combination
(§4) Evaluation of DRI is important clinically because it can allow the dose of a potentially toxic drug to be lowered in combination with another compound without reducing the drug’s efficacy. A DRI higher than 1 is viewed as beneficial.

[4] = system: A. baumannii ATCC 12457; assay: Checkerboard assay with PMB; assay type: cell-based, Acinetobacter baumannii; conditions: for MIC, Combination: NCL259 or NCL265 with PMB; for Combination Effect / FICI: with PMB
Description: as §3, §4

[5] = system: A. baumannii ATCC 19606; assay: Checkerboard assay with PMB; assay type: cell-based, Acinetobacter baumannii; conditions: for MIC, Combination: NCL259 or NCL265 with PMB; for Combination Effect / FICI: with PMB
Description: as §3, §4

[6] = system: Companion animal ExPEC (n = 51); assay: MIC, broth micro-dilution, clinical isolates; assay type: cell-based, Escherichia coli; conditions: for MIC range: Companion animal ExPEC (n = 51); for MIC50 / MIC90: Escherichia coli
Description: as §1, §2

[7] = system: Porcine/bovine ETEC (n = 83); assay: MIC, broth micro-dilution, clinical isolates; assay type: cell-based, Escherichia coli; conditions: for MIC50 / MIC90: Escherichia coli; for MIC range: Porcine/bovine ETEC (n = 83)
Description: as §1, §2

[8] = system: K. oxytoca 13GNB–582; assay: MIC, broth micro-dilution; assay type: cell-based; conditions: Klebsiella oxytoca, read-out: MIC, Single Drug
Description: as §2, §3

[9] = system: K. pneumoniae 13GNB–429; assay: MIC, broth micro-dilution; assay type: cell-based; conditions: Klebsiella pneumoniae, read-out: MIC, Single Drug
Description: as §2, §3

[10] = system: K. pneumoniae 13GNB–550; assay: MIC, broth micro-dilution; assay type: cell-based; conditions: Klebsiella pneumoniae, read-out: MIC, Single Drug
Description: as §2, §3

[11] = system: K. pneumoniae 13GNB–429, K. pneumoniae 13GNB–550 and K. oxytoca 13GNB–582; assay: MIC, three resistant Klebsiella isolates; assay type: cell-based; conditions: three resistant Klebsiella spp. isolates
Description: as §2

Row | Structure (SMILES) | MIC [1] [µg/mL] | MIC [2] [µg/mL] | MIC, Combination [3] [µg/mL] | Combination Effect [3] | FICI [3] | MIC, Combination [4] [µg/mL] | Combination Effect [4] | FICI [4] | MIC, Combination [5] [µg/mL] | Combination Effect [5] | FICI [5] | MIC range [6] [µg/mL] | MIC50 [6] [µg/mL] | MIC90 [6] [µg/mL] | MIC50 [7] [µg/mL] | MIC90 [7] [µg/mL] | MIC range [7] [µg/mL] | MIC [8] [µg/mL] | MIC [9] [µg/mL] | MIC [10] [µg/mL] | further results
1 | [H]/N=C(\N)NN=C(CC1CCCCC1)c1ccc(Cl)cc1 [NCL259, (E)-2-(1-(4-chlorophenyl)-2-cyclohexylethylidene)hydrazine-1-carboximidamide] | 64 | 8 | 1 | Additivity (additive or partially synergistic, 0.5 < FICI ≤ 1) | 0.516 | 1 | Additivity (additive or partially synergistic, 0.5 < FICI ≤ 1) | 0.625 | 1 | Additivity (additive or partially synergistic, 0.5 < FICI ≤ 1) | 0.625 | 16 to 64 | 32 | 32 | 8 | 8 | 4 to 64 | > 256 | > 256 | > 256 | Dose Reduction Index (DRI) PMB:NCL259 ([3]; PMB + NCL259): 64; Dose Reduction Index (DRI) PMB:NCL259 ([4]; PMB + NCL259): 8; Dose Reduction Index (DRI) PMB:NCL259 ([5]; PMB + NCL259): 8; MIC [11]: > 256 µg/mL; MIC ([11]; read-out: MIC): > 256 µg/mL
2 | [H]/N=C(\N)NN=C(CCCCCC)c1ccc(Cl)cc1 [NCL265, (E)-2-(1-(4-chlorophenyl)heptylidene)hydrazine-1-carboximidamide] | 64 | 2 | 0.25 | Additivity (additive or partially synergistic, 0.5 < FICI ≤ 1) | 0.504 | 0.5 | Additivity (additive or partially synergistic, 0.5 < FICI ≤ 1) | 0.75 | 0.5 | Additivity (additive or partially synergistic, 0.5 < FICI ≤ 1) | 0.75 | 4 to 16 | 32 | 32 | 8 | 8 | 2 to 16 | > 256 | > 256 | > 256 | Dose Reduction Index (DRI) PMB:NCL265 ([3]; PMB + NCL265): 256; Dose Reduction Index (DRI) PMB:NCL265 ([4]; PMB + NCL265): 4; Dose Reduction Index (DRI) PMB:NCL265 ([5]; PMB + NCL265): 4; MIC [11]: > 256 µg/mL; MIC ([11]; read-out: MIC): > 256 µg/mL
